Assay results published in the NIST ThermoML archive (doi:10.1021/je401120a).

Experiment: refractive index (Na D-line) (dimensionless); xn = mol fraction of the nth substance listed
Settings: 101 kPa, Liquid, Standard Abbe refractometry

CCC[n+]1ccccc1.F[B-](F)(F)F [1-propylpyridinium tetrafluoroborate] + CO
refractive index
Settings | 293.15 K | 303.15 K | 313.15 K | 323.15 K
x1 = 0.0279 | 1.34377 | 1.3399 | 1.3361 | 1.33304
x1 = 0.0576 | 1.35657 | 1.35319 | 1.34994 | 1.34753
x1 = 0.0965 | 1.36988 | 1.36693 | 1.36409 | 1.36215
x1 = 0.1457 | 1.38283 | 1.38006 | 1.37759 | 1.37597
x1 = 0.1949 | 1.39301 | 1.3903 | 1.38806 | 1.38633
x1 = 0.2548 | 1.4028 | 1.40001 | 1.39755 | 1.39577
x1 = 0.3209 | 1.41121 | 1.40839 | 1.40578 | 1.40373
x1 = 0.3998 | 1.4189 | 1.41592 | 1.41304 | 1.41094
x1 = 0.496 | 1.42595 | 1.42315 | 1.42027 | 1.4177
x1 = 0.5983 | 1.43176 | 1.4289 | 1.42609 | 1.42341
x1 = 0.6901 | 1.43601 | 1.43321 | 1.43034 | 1.42772
x1 = 0.8007 | 1.44014 | 1.43738 | 1.43461 | 1.43193
x1 = 0.8821 | 1.44265 | 1.43997 | 1.43737 | 1.43464
x1 = 1 | 1.44588 | 1.44322 | 1.44057 | 1.43792
